For orientation: IC50 means the concentration that inhibits the measured activity by half. Lower therefore signals greater potency.

Data on one molecule can be found in PMC10917667, “Targeted protein degradation via intramolecular bivalent glues” (Nature, 2024).

The experiment concerns the target T1, BRD4 (BRD4^Tandem) (Homo sapiens, UniProt O60885).
T1 construct: BRD4^Tandem (residues 43–459), BD1 and BD2 with native linker; with DCAF16–DDB1(ΔBPB)–DDA1
In words: cryo-EM ternary structure ([…] Å); alphaLISA displacement ([…] with DCAF16, […] alone); ITC; TR-FRET. The format is binding. (Bead proximity is the source of the signal in Alpha formats.)

On to `COC(=O)C[C@@H]1N=C(c2ccc(-c3ccc(C(=O)NCc4ccc(S(=O)(=O)Nc5ccc(C)c6c(C#N)c[nH]c56)cc4)cc3)cc2)c2c(sc(C)c2C)-n2c(C)nnc21` [IBG1], for which the IC50 was found to be 12.8 nM.
